The results in this text go back to EP4389751A1, “HETEROCYCLIC COMPOUNDS AND USES THEREOF” (Kumquat Biosciences Inc., priority 2021, dated 2024).

In the assay the target is T1, K-Ras G12S (Homo sapiens, UniProt P01116, G12S).
T1 construct: made in house; host or cells: E. coli (e.g., BL21 (DE3))
The assay is described as follows: HTRF assay of the K-Ras / SOS1 interaction. Type of assay: biochemical. The note with it: IC50 (against K-Ras G12D) to IC50 (against K-Ras G12S). From the text: This assay can be also used to assess a selective inhibition or reduction of signaling output of a mutant Ras protein relative to a wildtype, or relative to a different mutant Ras protein. For example, the equilibrium interaction of wildtype Kras or K-Ras mutant (e.g., wildtype or a mutant thereof including those mentioned in Example 6) with SOS1 (e.g., hSOS1) can be assessed as a proxy or an indication for a subject compound's ability to bind and inhibit Ras protein. HTRF assay detects from (i) a fluorescence resonance energy transfer (FRET) donor (e.g., antiGST-Europium) that is bound to GST-tagged K-Ras mutant to (ii) a FRET acceptor (e.g., anti-6His-XL665) bound to a His-tagged hSOS 1.
The assay buffer can contain ~5 mM HEPES pH 7.4, -150 mM NaCI, - 1 mM DTT, 0.05% BSA and 0.0025% (v/v) Igepal. A Ras working solution is prepared in an assay buffer containing typically a suitable amount of the protein construct (e.g., GST-tagged K-Ras mutant) and the FRET donor (e.g., antiGST-Eu(K) from Cisbio, France). A SOS1 working solution is prepared in an assay buffer containing suitable amount of the protein construct (e.g., His-hSOS1) and the FRET acceptor (e.g., anti-6His-XL665 from Cisbio, France). A suitable amount of the protein construct will depend on the range of activity or range of IC50 values being detected or under investigation. For detecting IC50 within a range of 500 nM, the protein constructs of the same range of molarity can be utilized.
A fixed volume of DMSO with or without test compound is transferred into a 384-well plate. Ras working solution is added to all wells of the test plate. SOS1 working solution is added to all wells except for those that are subsequently filled the inhibitor control solution. Upon incubation for about 10 minutes or longer, the fluorescence is measured with a M1000Pro plate reader (Tecan) using HTRF detection (excitation 337nm, emission 1 : 620nm, emission 2: 665nm). Compounds are tested in duplicates at different concentrations (for example, 10 µM, 2.5 µM, 0.63 µM, 0.16 µM, 0.04 µM, 0.01 µM test compound). The ratiometric data (i.e., emission 2 divided by emission 1) is used to calculate IC50 values against Ras using GraphPad Prism (GraphPad software). Following this general procedure, samples were tested with or without a subject compound disclosed herein including compounds exemplified in Table 3 to assess their abilities to inhibit K-Ras G12S relative to another mutant (e.g., K-Ras G12D). Signaling output measured in terms of IC50 values can be obtained, a ratio of IC50 against one mutant relative to another mutant can be calculated. For instance, a selective reduction of K-Ras G12S signaling output can be evidenced by a ratio greater than one. In particular, a selective reduction of K-Ras G12S signaling relative to K-Ras G12D signaling is evidenced as the ratio of IC50 (against K-Ras G12D) to IC50 (against K-Ras G12S) is greater than 1. […]
Take “1-(7-(7-(2-amino-7-fluorobenzo[d]thiazol-4-yl)-6-chloro-8-fluoro-2-(((2R,7aS)-2-fluorotetrahydro-1H-pyrrolizin-7a(5H)-yl)methoxy)quinazolm-4-yl)-2,7-diazaspiro[3.5]nonane-2-carbonyl)-1H-imidazole-4-carbonitrile [Compound A179]”: the “Ratio of IC50 KRAS G12D vs. IC50 KRAS G12S” value (shortened to “Ratio”) is on record as “A (A: indicates that the ratio of IC50 against KrasG12D vs. IC50 against KrasG12S is 1-fold or greater)”. To `Cc1cnn(C(=O)N2C3CCC2CN(c2nc(OC[C@@]45CCCN4C[C@H](F)C5)nc4c(F)c(-c5ccc(F)c6sc(N)nc56)c(Cl)cc24)C3)c1` [Compound A113, (3-(7-(2-amino-7-fluorobenzo[d]thiazol-4-yl)-6-chloro-8-fluoro-2-(((2R,7aS)-2-fluorotetrahydro-1H-pyrrolizin-7a(5H)-yl)methoxy)quinazolin-4-yl)-3,8-diazabicyclo[3.2.1]octan-8-yl)(4-methyl-1H-pyrazol-1-yl)methanone] belongs “A (A: indicates that the ratio of IC50 against KrasG12D vs. IC50 against KrasG12S is 1-fold or greater)”. In the case of `C[C@H](Oc1nc(N2CCN(C(=O)Nc3nccs3)CC(O)C2)c2cc(Cl)c(-c3ccc(F)c4sc(N)c(C#N)c34)c(F)c2n1)[C@@H]1CCCN1C` (stereo partly drawn) [Compound A118, 4-(7-(2-amino-3-cyano-7-fluorobenzo[b]thiophen-4-yl)-6-chloro-8-fluoro-2-((S)-1-((S)-1-methylpyrrolidin-2-yl)ethoxy)quinazolin-4-yl)-6-hydroxy-N-(thiazol-2-yl)-1,4-diazepane-1-carboxamide], the “Ratio” value is on record as “A (A: indicates that the ratio of IC50 against KrasG12D vs. IC50 against KrasG12S is 1-fold or greater)”. With `N#Cc1cnn(C(=O)N2C3CCC2CN(c2nc(OC[C@@]45CCCN4C[C@H](F)C5)nc4c(F)c(-c5cc(O)cc6ccccc56)ccc24)C3)c1` [Compound A120, 1-(3-(8-fluoro-2-(((2R,7aS)-2-fluorotetrahydro-1H-pyrrolizin-7a(5H)-yl)methoxy)-7-(3-hydroxynaphthalen-1-yl)quinazolin-4-yl)-3,8-diazabicyclo[3.2. 1]octane-8-carbonyl)-1H-pyrazole-4-carbonitrile], the “Ratio” value is on record as “A (A: indicates that the ratio of IC50 against KrasG12D vs. IC50 against KrasG12S is 1-fold or greater)”. As for `N#Cc1c(N)sc2c(F)ccc(-c3c(Cl)cc4c(N5CCN(CC6CC6)C6(CN(C(=O)n7cncn7)C6)C5)nc(OC[C@@]56CCCN5C[C@H](F)C6)nc4c3F)c12` [Compound A139, 2-amino-4-(6-chloro-4-(5-(cyclopropylmethyl)-2-(1H-1,2,4-triazole-1-carbonyl)-2,5,8-triazaspiro[3.5]nonan-8-yl)-8-fluoro-2-(((2R,7aS)-2-fluorotetrahydro-1H-pyrrolizin-7a(5H)-yl)methoxy)quinazolin-7-yl)-7-fluorobenzo[b]thiophene-3-carbonitrile], the entry is “A (A: indicates that the ratio of IC50 against KrasG12D vs. IC50 against KrasG12S is 1-fold or greater)”; as for `Nc1nc2c(-c3c(Cl)cc4c(NC5CCC6(C5)CN(C(=O)n5cncn5)C6)nc(OC[C@@]56CCCN5C[C@H](F)C6)nc4c3F)ccc(F)c2s1` (stereo partly drawn) [Compound A142, (6-((7-(2-amino-7-fluorobenzo[d]thiazol-4-yl)-6-chloro-8-fluoro-2-(((2R,7aS)-2-fluorotetrahydro-1H-pyrrolizin-7a(5H)-yl)methoxy)quinazolin-4-yl)amino)-2-azaspiro[3.4]octan-2-yl)(1H-1,2,4-triazol-1-yl)methanone], “A (A: indicates that the ratio of IC50 against KrasG12D vs. IC50 against KrasG12S is 1-fold or greater)”; as for `Nc1nc2c(-c3c(Cl)cc4c(NC5CCN(C(=O)Nc6ccncn6)CC5)nc(OC[C@@]56CCCN5C[C@H](F)C6)nc4c3F)ccc(F)c2s1` [Compound A147, 4-((7-(2-amino-7-fluorobenzo[d]thiazol-4-yl)-6-chloro-8-fluoro-2-(((2R,7aS)-2-fluorotetrahydro-1H-pyrrolizin-7a(5H)-yl)methoxy)quinazolin-4-yl)amino)-N-(pyrimidin-4-yl)piperidine-1-carboxamide], “A (A: indicates that the ratio of IC50 against KrasG12D vs. IC50 against KrasG12S is 1-fold or greater)”.

On to `N#Cc1c(N)sc2c(F)ccc(-c3c(Cl)cc4c(OC5CCN(C(=O)Nc6nccs6)C5)nc(OC[C@@]56CCCN5C[C@H](F)C6)nc4c3F)c12` (stereo partly drawn) [Compound A150, 3-((7-(2-amino-3-cyano-7-fluorobenzo[b]thiophen-4-yl)-6-chloro-8-fluoro-2-(((2R,7aS)-2-fluorotetrahydro-1H-pyrrolizin-7a(5H)-yl)methoxy)quinazolin-4-yl)oxy)-N-(thiazol-2-yl)pyrrolidine-1-carboxamide], for which the “Ratio” value is “A (A: indicates that the ratio of IC50 against KrasG12D vs. IC50 against KrasG12S is 1-fold or greater)”. As for `N#Cc1nccn1C(=O)N1CCC(Nc2nc(OC[C@@]34CCCN3C[C@H](F)C4)nc3c(F)c(-c4ccc(F)c5sc(N)nc45)c(Cl)cc23)CC1` [Compound A155, 1-(4-((7-(2-amino-7-fluorobenzo[d]thiazol-4-yl)-6-chloro-8-fluoro-2-(((2R,7aS)-2-fluorotetrahydro-1H-pyrrolizin-7a(5H)-yl)methoxy)quinazolin-4-yl)amino)piperidine-1-carbonyl)-1H-imidazole-2-carbonitrile], the entry is “A (A: indicates that the ratio of IC50 against KrasG12D vs. IC50 against KrasG12S is 1-fold or greater)”; as for `N#Cc1c(N)sc2c(F)ccc(-c3c(Cl)cc4c(N5CCN(C(=O)Nc6nccs6)CC(O)C5)nc(OC[C@@]56CCCN5C[C@H](F)C6)nc4c3F)c12` (stereo partly drawn) [Compound A164, 4-(7-(2-amino-3-cyano-7-fluorobenzo[b]thiophen-4-yl)-6-chloro-8-fluoro-2-(((2R,7aS)-2-fluorotetrahydro-1H-pyrrolizin-7a(5H)-yl)methoxy)quinazolin-4-yl)-6-hydroxy-N-(thiazol-2-yl)-1,4-diazepane-1-carboxamide], “A (A: indicates that the ratio of IC50 against KrasG12D vs. IC50 against KrasG12S is 1-fold or greater)”. As for `Nc1nc2c(-c3c(Cl)cc4c(N5CC(N6CCN(C(=O)n7cncn7)CC6)C5)nc(OC[C@@]56CCCN5C[C@H](F)C6)nc4c3F)ccc(F)c2s1` [Compound A166, (4-(1-(7-(2-amino-7-fluorobenzo[d]thiazol-4-yl)-6-chloro-8-fluoro-2-(((2R,7aS)-2-fluorotetrahydro-1H-pyrrolizin-7a(5H)-yl)methoxy)quinazolin-4-yl)azetidin-3-yl)piperazin-1-yl)(1H-1,2,4-triazol-1-yl)methanone], the entry is “A (A: indicates that the ratio of IC50 against KrasG12D vs. IC50 against KrasG12S is 1-fold or greater)”; as for `C[C@H](Oc1nc(N2CCCCC3(CN(C(=O)n4cncn4)C3)C2)c2cc(Cl)c(-c3ccc(F)c4sc(N)c(C#N)c34)c(F)c2n1)[C@@H]1CCCN1C` [Compound A167, 4-(4-(2-(1H-1,2,4-triazole-1-carbonyl)-2,6-diazaspiro[3.6]decan-6-yl)-6-chloro-8-fluoro-2-((S)-1-((S)-1-methylpyrrolidin-2-yl)ethoxy)quinazolin-7-yl)-2-amino-7-fluorobenzo[b]thiophene-3-carbonitrile], “A (A: indicates that the ratio of IC50 against KrasG12D vs. IC50 against KrasG12S is 1-fold or greater)”; as for `N#Cc1cccn1C(=O)N1CC2CCC(C1)N2c1nc(OC[C@@]23CCCN2C[C@H](F)C3)nc2c(F)c(-c3ccc(F)c4sc(N)nc34)c(Cl)cc12` [Compound A172, 1-(8-(7-(2-amino-7-fluorobenzo[d]thiazol-4-yl)-6-chloro-8-fluoro-2-(((2R,7aS)-2-fluorotetrahydro-1H-pyrrolizin-7a(5H)-yl)methoxy)quinazolin-4-yl)-3,8-diazabicyclo[3.2. 1]octane-3-carbonyl)-1H-pyrrole-2-carbonitrile], “A (A: indicates that the ratio of IC50 against KrasG12D vs. IC50 against KrasG12S is 1-fold or greater)”.
